Where a name gives a salt, the structure may show the parent alone.
The compounds below were run against Human DGAT2 (hDGAT2) (Homo sapiens (Human), UniProt Q96PD7) (assay: In vitro DGAT2 assay, IC50 determination with hDGAT2 membrane fraction). Conditions: geometric mean; background for complete inhibition of DGAT2 obtained with 50 μM (1R,2R)-2-({3′-Fluoro-4′-[(6-fluoro-1,3-benzothiazol-2-yl)amino]-1,1′-biphenyl-4-yl}carbonyl)cyclopentanecarboxylic acid; hydrochloride; read-out: DGAT2 IC50.
Type: biochemical
Summary of the method: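 CHAPS-solubilized membrane fraction of FLAG-tagged hDGAT2 from baculovirus-infected SF9 cells (0.01 mg/mL) in 100 mM Hepes-NaOH pH 7.4, 20 mM MgCl2, 200 nM methyl arachidonyl fluorophosphonate; compounds pre-incubated 20 min with 0.04% BSA. Reaction 40 min at room temperature, stopped with H3PO4. [^14C]tridecanoylglycerol in organic phase counted; 11-point geometric mean IC50.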

Sequence of Human DGAT2 (hDGAT2) (Q96PD7 whole entry): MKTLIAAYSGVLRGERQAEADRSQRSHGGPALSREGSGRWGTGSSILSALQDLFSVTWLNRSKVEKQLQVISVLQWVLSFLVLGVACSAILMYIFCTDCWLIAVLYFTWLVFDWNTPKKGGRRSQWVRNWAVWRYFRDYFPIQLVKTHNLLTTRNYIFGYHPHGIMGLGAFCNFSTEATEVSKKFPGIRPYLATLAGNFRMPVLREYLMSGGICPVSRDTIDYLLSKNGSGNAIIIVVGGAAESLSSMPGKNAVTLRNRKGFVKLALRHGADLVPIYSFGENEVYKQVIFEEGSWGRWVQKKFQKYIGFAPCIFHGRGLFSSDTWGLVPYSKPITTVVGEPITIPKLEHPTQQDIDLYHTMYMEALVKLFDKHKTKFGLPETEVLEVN

Question: `C[C@@H](c1nc2ccc(N3CCC[C@@H](C(=O)N4CCCC4)C3)nc2[nH]1)n1cc(Cl)cn1` [Example 196-B, ((R)-1-(2-((S)-1-(4-Chloro-1H-pyrazol-1-yl)ethyl)-3H-imidazo[4,5-b]pyridin-5-yl)piperidin-3-yl)(pyrrolidin-1-yl)methanone hydrochloride] was tested. Which IC50 did it give?
Answer: Its IC50 is 38.5 nM.

Same assay, conditions: geometric mean; background for complete inhibition of DGAT2 obtained with 50 μM (1R,2R)-2-({3′-Fluoro-4′-[(6-fluoro-1,3-benzothiazol-2-yl)amino]-1,1′-biphenyl-4-yl}carbonyl)cyclopentanecarboxylic acid; read-out: DGAT2 IC50

Question: `O=C(C1CCCC1)N1CCCC(c2nc3ccc(N4CCC[C@@H](C(=O)N5CCCC5)C4)nc3[nH]2)C1` (some centres unmarked) [Example 62] was tested. Which IC50 did it give?
Answer: Its IC50 is 241 nM.

Question: Which IC50 does the source give for `O=C([C@@H]1CCCN(c2ccc3nc(C4(n5ccnc5)CC4)[nH]c3n2)C1)N1CCCC1` [Example 215, (R)-(1-(2-(1-(1H-Imidazol-1-yl)cyclopropyl)-3H-imidazo[4,5-b]pyridin-5-yl)piperidin-3-yl)(pyrrolidin-1-yl)methanone] here?
Answer: Its IC50 is 483 nM.

Question: How did the IC50 turn out when `CS(=O)(=O)c1cccc(-c2nc3ccc(N4CCC[C@@H](C(=O)N5CCCC5)C4)nc3[nH]2)c1` [Example 127, (R)-(1-(2-(3-(Methylsulfonyl)phenyl)-3H-imidazo[4,5-b]pyridin-5-yl)piperidin-3-yl)(pyrrolidin-1-yl)methanone] was run?
Answer: Its IC50 is 235 nM.

Question: `O=C([C@@H]1CCCN(c2ccc3nc(C4(n5cccn5)CC4)[nH]c3n2)C1)N1CCCC1` [Example 79, (R)-(1-(2-(1-(1H-Pyrazol-1-yl)cyclopropyl)-3H-imidazo[4,5-b]pyridin-5-yl)piperidin-3-yl)(pyrrolidin-1-yl)methanone] was tested. Which IC50 did it give?
Answer: Its IC50 is 230 nM.

Question: Which IC50 does the source give for `O=C([C@@H]1CCCN(c2ccc3nc(-c4cccc(OC(F)F)c4)[nH]c3n2)C1)N1CCCC1` [Example 43, (R)-(1-(2-(3-(Difluoromethoxy)phenyl)-3H-imidazo[4,5-b]pyridin-5-yl)piperidin-3-yl)(pyrrolidin-1-yl)methanone] here?
Answer: Its IC50 is 7.41 nM.

Question: For `CS(=O)(=O)c1cncc(-c2nc3ccc(N4CCC[C@@H](C(=O)N5CCCC5)C4)nc3[nH]2)c1` [Example 179, (R)-(1-(2-(5-(Methylsulfonyl)pyridin-3-yl)-3H-imidazo[4,5-b]pyridin-5-yl)piperidin-3-yl)(pyrrolidin-1-yl)methanone], which IC50 is on record?
Answer: Its IC50 is 512 nM.

Question: Which IC50 does the source give for `CS(=O)(=O)Nc1cccc(-c2nc3ccc(N4CCC[C@@H](C(=O)N5CCCC5)C4)nc3[nH]2)c1` [Example 30, (R)-N-(3-(5-(3-(Pyrrolidine-1-carbonyl)piperidin-1-yl)-3H-imidazo[4,5-b]pyridin-2-yl)phenyl)methanesulfonamide] here?
Answer: The IC50 was 1400 nM.

Question: With `CCc1cc(-c2nc3ccc(N4CCC[C@@H](C(=O)N5CCCC5)C4)nc3[nH]2)no1` [Example 32, (R)-(1-(2-(5-Ethylisoxazol-3-yl)-3H-imidazo[4,5-b]pyridin-5-yl)piperidin-3-yl)(pyrrolidin-1-yl)methanone] as the compound, how does the IC50 read?
Answer: The IC50 was 239 nM.

Question: How did the IC50 turn out when `CN(C)c1cccc(-c2nc3ccc(N4CCC[C@@H](C(=O)N5CCCC5)C4)nc3[nH]2)n1` [Example 119, (R)-(1-(2-(6-(Dimethylamino)pyridin-2-yl)-3H-imidazo[4,5-b]pyridin-5-yl)piperidin-3-yl)(pyrrolidin-1-yl)methanone] was run?
Answer: The IC50 was 22.2 nM.

Question: Which IC50 does the source give for `O=C([C@@H]1CCCN(c2ccc3nc(C4(n5cc(Cl)cn5)CC4)[nH]c3n2)C1)N1CC(F)(F)C1` [Example 200, (R)-(1-(2-(1-(4-Chloro-1H-pyrazol-1-yl)cyclopropyl)-3H-imidazo[4,5-b]pyridin-5-yl)piperidin-3-yl)(3,3-difluoroazetidin-1-yl)methanone] here?
Answer: Its IC50 is 74.2 nM.

Question: How did the IC50 turn out when `O=C([C@@H]1CCCN(c2ccc3nc(-c4ccc(OC(F)(F)F)cc4)[nH]c3n2)C1)N1CCCC1` [Example 34, (R)-Pyrrolidin-1-yl(1-(2-(4-(trifluoromethoxy)phenyl)-3H-imidazo[4,5-b]pyridin-5-yl)piperidin-3-yl)methanone] was run?
Answer: Its IC50 is 24.8 nM.

Question: How did the IC50 turn out when `O=C([C@@H]1CCCN(c2ccc3nc(-c4ccnc(C5CC5)n4)[nH]c3n2)C1)N1CC[C@H](F)C1` [Example 65, ((R)-1-(2-(2-Cyclopropylpyrimidin-4-yl)-3H-imidazo[4,5-b]pyridin-5-yl)piperidin-3-yl)((S)-3-fluoropyrrolidin-1-yl)methanone] was run?
Answer: Its IC50 is 59.3 nM.

Question: For `CNS(=O)(=O)c1cncc(-c2nc3ccc(N4CCC[C@@H](C(=O)N5CCCC5)C4)nc3[nH]2)c1` [Example 100, (R)-N-Methyl-5-(5-(3-(pyrrolidine-1-carbonyl)piperidin-1-yl)3H-imidazo[4,5-b]pyridin-2-yl)pyridine-3-sulfonamide], which IC50 is on record?
Answer: The IC50 was 47.8 nM.

Question: How did the IC50 turn out when `O=C([C@@H]1CCCN(c2ccc3nc(-c4cccc(-c5nnn[nH]5)c4)[nH]c3n2)C1)N1CCCC1` [Example 163, (R)-(1-(2-(3-(2H-Tetrazol-5-yl)phenyl)-3H-imidazo[4,5-b]pyridin-5-yl)piperidin-3-yl)(pyrrolidin-1-yl)methanone] was run?
Answer: The IC50 was 3400 nM.

Question: `COc1cccc(-c2nc3ccc(N4CCC[C@@H](C(=O)N5CCCC5)C4)nc3[nH]2)c1` [Example 36, (R)-(1-(2-(3-Methoxyphenyl)-3H-imidazo[4,5-b]pyridin-5-yl)piperidin-3-yl)(pyrrolidin-1-yl)methanone] was tested. Which IC50 did it give?
Answer: The IC50 was 20.7 nM.

Question: With `O=C(Nc1ccccn1)c1nc2ccc(N3CCC[C@@H](C(=O)N4CCCC4)C3)nc2[nH]1` [Example 130, (R)—N-(Pyridin-2-yl)-5-(3-(pyrrolidine-1-carbonyl)piperidin-1-yl)-3H-imidazo[4,5-b]pyridine-2-carboxamide] as the compound, how does the IC50 read?
Answer: The IC50 was 1900 nM.

Question: With `C[C@@H]1CCN(c2ncc3nc(C4(n5cccn5)CC4)[nH]c3n2)C[C@@H]1C(=O)N1CCCC1` [Example 207, ((3R,4R)-1-(8-(1-(1H-Pyrazol-1-yl)cyclopropyl)-9H-purin-2-yl)-4-methylpiperidin-3-yl)(pyrrolidin-1-yl)methanone] as the compound, how does the IC50 read?
Answer: The IC50 was 702 nM.

Question: With `N#Cc1cccc(-c2nc3ccc(N4CCC[C@@H](C(=O)N5CCCC5)C4)nc3[nH]2)c1` [Example 47, (R)-3-(5-(3-(Pyrrolidine-1-carbonyl)piperidin-1-yl)-3H-imidazo[4,5-b]pyridin-2-yl)benzonitrile] as the compound, how does the IC50 read?
Answer: Its IC50 is 34.5 nM.

Question: How did the IC50 turn out when `CC(C)COC(=O)N1CCCC(c2nc3ccc(N4CCC[C@@H](C(=O)N5CCCC5)C4)nc3[nH]2)C1` (stereo in doubt) [Example 61, (R)-iso-Butyl 3-(5-(3-(pyrrolidine-1-carbonyl)piperidin-1-yl)-3H-imidazo[4,5-b]pyridine-2-yl)piperidine-1-carboxylate] was run?
Answer: The IC50 was 86.4 nM.

Question: `O=C([C@@H]1CCCN(c2ncc3nc(C4(n5cccn5)CC4)[nH]c3n2)C1)N1CCCC1` [Example 210, (R)-(1-(8-(1-(1H-Pyrazol-1-yl)cyclopropyl)-9H-purin-2-yl)piperidin-3-yl)(pyrrolidin-1-yl)methanone] was tested. Which IC50 did it give?
Answer: Its IC50 is 342 nM.

Question: How did the IC50 turn out when `O=C([C@H]1CN(c2ccc3nc(-c4cncc(C5CC5)n4)[nH]c3n2)CCO1)N1CCCC1` [Example 146, (R)-(4-(2-(6-Cyclopropylpyrazin-2-yl)-3H-imidazo[4,5-b]pyridin-5-yl)morpholin-2-yl)(pyrrolidin-1-yl)methanone] was run?
Answer: Its IC50 is 401 nM.

Question: With `O=C([C@@H]1CCCN(c2ccc3nc(-c4ccnc(NC5CC5)n4)[nH]c3n2)C1)N1CCCC1` [Example 15, (R)-(1-(2-(2-(Cyclopropylamino)pyrimidin-4-yl)-3H-imidazo[4,5-b]pyridin-5-yl)piperidin-3-yl)(pyrrolidin-1-yl)methanone] as the compound, how does the IC50 read?
Answer: The IC50 was 89.6 nM.

Question: For `CC(c1ccccc1)c1nc2ccc(N3CCC[C@@H](C(=O)N4CCCC4)C3)nc2[nH]1` (stereo partly drawn) [Example 157, (R)-(1-(2-(1-Phenylethyl)-3H-imidazo[4,5-b]pyridin-5-yl)piperidin-3-yl)(pyrrolidin-1-yl)methanone], which IC50 is on record?
Answer: Its IC50 is 211 nM.

Question: How did the IC50 turn out when `CNS(=O)(=O)c1cccc(-c2nc3ccc(N4CCC[C@@H](C(=O)N5CCCC5)C4)nc3[nH]2)c1` [Example 8, (R)-N-Methyl-3-(5-(3-(pyrrolidine-1-carbonyl)piperidin-1-yl)-3H-imidazo[4,5-b]pyridin-2-yl)benzenesulfonamide] was run?
Answer: Its IC50 is 21.1 nM.

Question: With `CC(C)(O)c1cc(-c2nc3ccc(N4CCC[C@@H](C(=O)N5CCCC5)C4)nc3[nH]2)ccn1` [Example 14, (R)-(1-(2-(2-(2-Hydroxypropan-2-yl)pyridin-4-yl)-3H-imidazo[4,5-b]pyridin-5-yl)piperidin-3-yl)(pyrrolidin-1-yl)methanone] as the compound, how does the IC50 read?
Answer: Its IC50 is 72.8 nM.

Question: `O=C([C@@H]1CCCN(c2ccc3nc(-c4ccnc(N5CCOCC5)n4)[nH]c3n2)C1)N1CCCC1` [Example 25, (R)-(1-(2-(2-Morpholinopyrimidin-4-yl)-3H-imidazo[4,5-b]pyridin-5-yl)piperidin-3-yl)(pyrrolidin-1-yl)methanone] was tested. Which IC50 did it give?
Answer: The IC50 was 297 nM.

Question: With `O=C([C@@H]1CCCN(c2ccc3nc(C4(c5cccnn5)CC4)[nH]c3n2)C1)N1CCCC1` [Example 222, (R)-(1-(2-(1-(Pyridazin-3-yl)cyclopropyl)-3H-imidazo[4,5-b]pyridin-5-yl)piperidin-3-yl)(pyrrolidin-1-yl)methanone] as the compound, how does the IC50 read?
Answer: Its IC50 is 531 nM.

Question: For `Cc1ccnn1C1(c2nc3ccc(N4CCC[C@@H](C(=O)N5CCCC5)C4)nc3[nH]2)CC1` [Example 90, (R)-(1-(2-(1-(5-methyl-1H-pyrazol-1-yl)cyclopropyl)-3H-imidazo[4,5-b]pyridin-5-yl)piperidin-3-yl)(pyrrolidin-1-yl)methanone], which IC50 is on record?
Answer: The IC50 was 315 nM.

Question: With `CCc1csc(-c2nc3ccc(N4CCC[C@@H](C(=O)N5CCCC5)C4)nc3[nH]2)n1` [Example 40, (R)-(1-(2-(4-Ethylthiazol-2-yl)-3H-imidazo[4,5-b]pyridin-5-yl)piperidin-3-yl)(pyrrolidin-1-yl)methanone] as the compound, how does the IC50 read?
Answer: The IC50 was 6.47 nM.

Question: For `O=C([C@@H]1CCCN(c2ccc3nc(C(F)(F)c4ccccc4)[nH]c3n2)C1)N1CCCC1` [Example 166, (R)-(1-(2-(Difluoro(phenyl)methyl)-3H-imidazo[4,5-b]pyridin-5-yl)piperidin-3-yl)(pyrrolidin-1-yl)methanone], which IC50 is on record?
Answer: The IC50 was 2280 nM.

Same assay, conditions: geometric mean; background for complete inhibition of DGAT2 obtained with Example 196-A instead of the cyclopentanecarboxylic acid reference; read-out: DGAT2 IC50 (nM), values in the parentheses

Question: `O=C([C@@H]1CCCN(c2ccc3nc(C4(n5cccn5)CC4)[nH]c3n2)C1)N1CCCC1` [Example 79, (R)-(1-(2-(1-(1H-Pyrazol-1-yl)cyclopropyl)-3H-imidazo[4,5-b]pyridin-5-yl)piperidin-3-yl)(pyrrolidin-1-yl)methanone] was tested. Which IC50 did it give?
Answer: The IC50 was 238 nM.

From US9296745B2, “Diacylglycerol acyltransferase 2 inhibitors” (Pfizer Inc., priority 2012, dated 2016)
